Numbered stars: 1 amine (or outer) side, 2 acyl side, 3 side chain; on linkers, the order of the positions; unused ones are H or OH. Square brackets hold non-standard residues; d marks the D form. Peptide text beside a SMILES is read from it. * marks the point of attachment. X3 = Cc1c(C)c(C)c(C[C@@H](N[*:1])C(=O)[*:2])c(C)c1C; X2 = O=C([C@@H](Cc1c2ccccc2cc2ccccc12)N[*:1])[*:2]; dDip = N[C@@H](C(=O)O)C(c1ccccc1)c1ccccc1; Acetyl(3-pyridyl) = O=C(Cc1cccnc1)*; Fmoc = O=C(OCC1c2ccccc2-c2ccccc21)*; Orn = NCCC[C@H](N)C(=O)O; NHcHex = C1CCC(N*)CC1; CO = O=C([*:1])[*:2]

By IC50 is commonly meant the concentration at which inhibition is half-maximal.

One test addresses T1, ETB (Rattus norvegicus, UniProt P21451).
T1 construct: thaw one aliquot of frozen rat cerebellar membranes; from tissue; host or cells: rat cerebellar membranes
T1 sequence (P21451 27-442): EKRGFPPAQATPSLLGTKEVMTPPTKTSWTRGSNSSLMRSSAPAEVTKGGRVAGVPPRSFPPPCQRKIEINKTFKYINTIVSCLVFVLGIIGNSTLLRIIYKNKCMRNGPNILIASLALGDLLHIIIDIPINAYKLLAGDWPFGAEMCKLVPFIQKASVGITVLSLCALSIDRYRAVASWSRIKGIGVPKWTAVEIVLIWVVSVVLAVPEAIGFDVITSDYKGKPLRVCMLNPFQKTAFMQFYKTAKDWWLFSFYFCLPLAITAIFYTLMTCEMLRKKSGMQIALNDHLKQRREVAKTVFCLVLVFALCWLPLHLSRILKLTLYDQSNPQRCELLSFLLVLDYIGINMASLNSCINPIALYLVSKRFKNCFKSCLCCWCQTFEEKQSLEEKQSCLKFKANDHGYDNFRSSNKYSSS
The test can be described thus: Endothelin Receptor Binding Assay-B (ETB), [125I]-ET-1 binding in rat cerebellar membranes. Conditions: Table IIa; rat cerebellar membranes; read-out: Binding Assay IC50 at Receptor Subtypes ETB. As to the method: The tissue is made up of 20 mM tris(hydroxymethyl)aminomethane hydrochloride (Trizma) buffer, 2 mM ethylenediaminetetraacetate, 100 μM phenylmethylsulfonyl fluoride.
First, thaw one aliquot of frozen rat cerebellar membranes (2 mg protein in 0.5 mL). Next, add 0.5 mL membrane aliquot to 4.5 mL cold tissue buffer, polytron at 7,500 revolutions per minute for 10 seconds. Finally, dilute tissue suspension 1/100 (0.1 mL suspension+9.9 mL tissue buffer), polytron again, and place ice.
Mix in 150 μL of tissue to each tube, vortex briefly, then tap to force all liquids to bottom (total assay volume=250 μL). Then place the tubes in a 37° C. water bath for 2 hours.
Add 2.5 mL cold water buffer (50 mM Trizma buffer) to each tube, filter, and then wash tube with additional 2.5 mL wash buffer and add to filter. Finally, wash filters with an additional 2.5 mL of cold wash buffer.
Count filters for radioactivity in gamma counter.

For a further test, the target named is T2, ETA (Oryctolagus cuniculus, UniProt A5A8K3).
T2 construct: The cells used were rabbit renal artery vascular smooth muscle cells; endogenous in cells; host or cells: rabbit renal artery vascular smooth muscle cells
T2 sequence (A5A8K3 21-427): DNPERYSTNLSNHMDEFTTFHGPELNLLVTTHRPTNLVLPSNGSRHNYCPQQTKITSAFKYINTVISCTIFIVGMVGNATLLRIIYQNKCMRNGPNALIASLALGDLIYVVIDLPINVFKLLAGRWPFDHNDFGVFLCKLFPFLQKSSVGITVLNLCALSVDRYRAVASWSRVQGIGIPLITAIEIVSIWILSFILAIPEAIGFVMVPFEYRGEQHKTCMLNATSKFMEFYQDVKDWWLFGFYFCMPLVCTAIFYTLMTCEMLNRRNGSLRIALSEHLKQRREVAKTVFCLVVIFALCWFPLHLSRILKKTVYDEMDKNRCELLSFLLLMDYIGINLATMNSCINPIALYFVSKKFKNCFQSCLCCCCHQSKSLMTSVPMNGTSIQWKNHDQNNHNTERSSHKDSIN
The experiment in a line: Endothelin Receptor Binding Assay-A (ETA), intact cell binding of [125I]-ET-1. Set-up: species or system rabbit. Conditions: Table IIa; rabbit renal artery vascular smooth muscle cells; read-out: Binding Assay IC50 at Receptor Subtypes ETA. The protocol: The cells used were rabbit renal artery vascular smooth muscle cells grown in a 48-well dish (1 cm^2) (confluent cells).
The growth media was Dulbeccos Modified Eagles/Ham's F12 which contained 10 fetal bovine serum and antibiotics (penicillin/streptomycin/fungizone).
Second, remove the assay buffers, place the dish on ice, and add 150 μL of cold assay buffer described above to each well. […] Next, place dish in a 37° C. water bath for about 2 hours and gently agitate the dish every 15 minutes. Discard the radioactive incubation mixture in the sink and wash wells 3 times with 1 mL of cold phosphate buffered saline. Last, add […] of 0.25M sodium hydroxide, agitate for 1 hour on rotator, and then transfer the sodium hydroxide extract to gamma counting tubes and count the radioactivity.

Take `CC[C@H](C)[C@H](NC(=O)[C@H](CC(=O)O)NC(=O)[C@H](CC(C)C)NC(=O)[C@H](N)Cc1c(C)c(C)c(C)c(C)c1C)C(=O)N[C@H](C(=O)N[C@@H](Cc1c[nH]c2ccccc12)C(=O)O)[C@@H](C)CC` [Example 52, D--Pmp--Leu--Asp--Ile--Ile--Trp] (H-[X3]LDIIW-OH): the IC50 at ETB turned out to be 3870 nM; on ETA it was 6000 nM.

As for `CC[C@H](C)[C@H](NC(=O)[C@H](CC(=O)O)NC(=O)[C@H](CC(C)C)NC(=O)[C@@H](Cc1c(C)c(C)c(C)c(C)c1C)NC(C)=O)C(=O)N[C@H](C(=O)N[C@@H](Cc1c[nH]c2ccccc12)C(=O)O)[C@@H](C)CC` [Example 53, Ac--D--Pmp--Leu--Asp--Ile--Ile--Trp] (Ac-[X3]LDIIW-OH), the IC50 came to 5500 nM on ETB and 1500 nM on ETA.

On to `CC[C@H](C)[C@H](NC(=O)[C@H](CC(=O)O)NC(=O)[C@H](CC(C)C)NC(=O)[C@H](NC(=O)Cc1cccnc1)C(c1ccccc1)c1ccccc1)C(=O)N[C@H](C(=O)N[C@@H](Cc1c[nH]c2ccccc12)C(=O)O)[C@@H](C)CC` [Example 33, Pya--D--Dip--Leu--Asp--Ile--Ile--Trp] ({Acetyl(3-pyridyl)}-[dDip]LDIIW-OH), for which the IC50 was found to be 180 nM on ETB and 5000 nM at ETA.

Consider `CC[C@H](C)[C@H](NC(=O)[C@@H](NC(=O)[C@H](CC(=O)O)NC(=O)[C@H](CC(C)C)NC(=O)[C@H](NC(C)=O)C(c1ccccc1)c1ccccc1)C(C)C)C(=O)N[C@@H](Cc1c[nH]c2ccccc12)C(=O)O` [Example 81, Ac--D--Dip--Leu--Asp--Val--Ile--Trp] (Ac-[dDip]LDVIW-OH), for which the IC50 on ETB worked out at 80 nM; at ETA it was 15 nM.

On to `CC[C@H](C)[C@H](NC(=O)[C@H](CC(=O)O)NC(=O)[C@H](CC(C)C)NC(=O)[C@@H](Cc1ccccc1)NC(C)=O)C(=O)N[C@@H](C)C(=O)N[C@@H](Cc1c[nH]c2ccccc12)C(=O)O` [Example 82, Ac--D--Phe--Leu--Asp--Ile--Ala--Trp] (Ac-[dF]LDIAW-OH), for which the IC50 at ETB was greater than 1000 nM; at ETA, 8000 nM.

Consider `CC[C@H](C)[C@H](NC(=O)[C@H](Cc1ccc(O)cc1)NC(=O)[C@H](N)C(c1ccccc1)c1ccccc1)C(=O)N[C@H](C(=O)N[C@@H](Cc1c[nH]c2ccccc12)C(=O)O)[C@@H](C)CC` [Example 95, D--Dip--Tyr--Ile--Ile--Trp] (H-[dDip]YIIW-OH), for which the half-maximal inhibitory concentration (IC50) at ETB is 350 nM; at ETA, 8000 nM.

As to `CC[C@H](C)[C@H](NC(=O)[C@H](CC(=O)O)NC(=O)[C@H](CC(C)C)NC(=O)[C@H](N)Cc1c2ccccc2cc2ccccc12)C(=O)N[C@H](C(=O)N[C@@H](Cc1c[nH]c2ccccc12)C(=O)O)[C@@H](C)CC` [Example 54, D--Ana--Leu--Asp--Ile--Ile--Trp] (H-[X2]LDIIW-OH), the figures for the IC50 at ETB and on ETA were 1210 nM and 5860 nM, respectively.

As to `CC[C@H](C)[C@H](NC(=O)[C@H](CC(=O)O)NC(=O)[C@H](C)NC(=O)[C@@H](Cc1ccccc1)NC(C)=O)C(=O)N[C@H](C(=O)N[C@@H](Cc1c[nH]c2ccccc12)C(=O)O)[C@@H](C)CC` [Example 59, Ac--D--Phe--Ala--Asp--Ile--Ile--Trp] (Ac-[dF]ADIIW-OH), the values for the concentration for half-maximal inhibition (IC50) at ETB and at ETA were 300 nM and 400 nM, respectively.

Turning to `CC[C@H](C)[C@H](NC(=O)[C@H](Cc1ccccc1)NC(=O)[C@H](CC(C)C)NC(=O)[C@H](NC(C)=O)C(c1ccccc1)c1ccccc1)C(=O)N[C@H](C(=O)N[C@@H](Cc1c[nH]c2ccccc12)C(=O)O)[C@@H](C)CC` [Example 16, Ac--D--Dip--Leu--Phe--Ile--Ile--Trp] (Ac-[dDip]LFIIW-OH), the IC50 on ETB came out at 8 nM; at ETA it was 1000 nM.

On to `CC[C@H](C)[C@H](NC(=O)[C@H](CC(=O)O)NC(=O)[C@H](CC(C)C)NC(=O)[C@H](NC(=O)OCC1c2ccccc2-c2ccccc21)C(c1ccccc1)c1ccccc1)C(=O)N[C@H](C(=O)N[C@@H](Cc1c[nH]c2ccccc12)C(=O)O)[C@@H](C)CC` [Example 30, Fmoc--D--Dip--Leu--Asp--Ile--Ile--Trp] (Fmoc-[dDip]LDIIW-OH), for which the half-maximal inhibitory concentration (IC50) at ETB and at ETA was 6000 nM in each case.

With `CC[C@H](C)[C@H](NC(=O)[C@H](CC(=O)O)NC(=O)[C@H](CC(C)C)NC(=O)[C@H](NC(=O)NC1CCCCC1)C(c1ccccc1)c1ccccc1)C(=O)N[C@H](C(=O)N[C@@H](Cc1c[nH]c2ccccc12)C(=O)O)[C@@H](C)CC` [Example 36, Cxl(U)--D--Dip--Leu--Asp--Ile--Ile--Trp] ({NHcHex-CO}-[dDip]LDIIW-OH), the 50% inhibitory concentration (IC50) worked out at 50 nM on ETB and 820 nM at ETA.

In the case of `CC[C@H](C)[C@H](NC(=O)[C@H](CC(N)=O)NC(=O)[C@H](CC(C)C)NC(=O)[C@H](N)C(c1ccccc1)c1ccccc1)C(=O)N[C@H](C(=O)N[C@@H](Cc1c[nH]c2ccccc12)C(=O)O)[C@@H](C)CC` [Example 70, D--Dip--Leu--Asn--Ile--Ile--Trp] (H-[dDip]LNIIW-OH), the IC50 on ETB was found to be 833 nM; at ETA, 6430 nM.

`CC[C@H](C)[C@H](NC(=O)[C@H](Cc1ccccc1)NC(=O)[C@H](CC(C)C)NC(=O)[C@@H](Cc1ccccc1)NC(C)=O)C(=O)N[C@H](C(=O)N[C@@H](Cc1c[nH]c2ccccc12)C(=O)O)[C@@H](C)CC` [Example 67, Ac--D--Phe--Leu--Phe--Ile--Ile--Trp] (Ac-[dF]LFIIW-OH): the half-inhibitory concentration (IC50) at ETB was determined as 35 nM.

In the case of `CC[C@H](C)[C@H](NC(=O)[C@H](CC(=O)O)NC(=O)[C@@H](Cc1ccccc1)NC(=O)[C@@H](Cc1ccccc1)NC(C)=O)C(=O)N[C@H](C(=O)N[C@@H](Cc1c[nH]c2ccccc12)C(=O)O)[C@@H](C)CC` [Example 61, Ac--D--Phe--D--Phe--Asp--Ile--Ile--Trp] (Ac-[dF][dF]DIIW-OH), the 50% inhibitory concentration (IC50) at ETB is 10 nM.

Consider `CC[C@H](C)[C@H](NC(=O)[C@H](CC(=O)O)NC(=O)[C@H](CC(C)C)NC(=O)[C@@H](Cc1ccccc1)NC(C)=O)C(=O)N[C@H](C(=O)N[C@@H](Cc1c[nH]c2ccccc12)C(=O)O)[C@@H](C)CC` [Example 1, Ac--D--Phe--Leu--Asp--Ile--Ile--Trp] (Ac-[dF]LDIIW-OH), for which the IC50 on ETB was determined as 3300 nM.

`CC[C@H](C)[C@H](NC(=O)[C@H](CC(=O)O)NC(=O)[C@H](CC(C)C)NC(=O)[C@@H](Cc1ccc(O)cc1)NC(C)=O)C(=O)N[C@H](C(=O)N[C@@H](Cc1c[nH]c2ccccc12)C(=O)O)[C@@H](C)CC` [Example 10, Ac--D--Tyr--Leu--Asp--Ile--Ile--Trp] (Ac-[dY]LDIIW-OH): at ETA, the IC50 was found to be 400 nM.

As to `CC[C@H](C)[C@H](NC(=O)[C@H](CC(=O)O)NC(=O)[C@H](CCCN)NC(=O)[C@@H](Cc1ccccc1)NC(C)=O)C(=O)N[C@H](C(=O)N[C@@H](Cc1c[nH]c2ccccc12)C(=O)O)[C@@H](C)CC` [Example 8, Ac--D--Phe--Orn--Asp--Ile--Ile--Trp] (Ac-[dF][Orn]DIIW-OH), the IC50 at ETB stood at 4000 nM.

As for `CC[C@H](C)[C@H](NC(=O)[C@H](CC(=O)O)NC(=O)[C@H](CC(C)C)NC(=O)[C@H](N)C(c1ccccc1)c1ccccc1)C(=O)N[C@H](C(=O)N[C@@H](Cc1c[nH]c2ccccc12)C(=O)O)[C@@H](C)CC` [Example 49, D--Dip--Leu--Asp--Ile--Ile--Trp] (H-[dDip]LDIIW-OH), at ETA, the IC50 turned out to be 2100 nM.

Regarding `CC[C@H](C)[C@H](NC(=O)[C@H](CC(=O)O)NC(=O)[C@H](Cc1ccccc1)NC(=O)[C@@H](Cc1ccccc1)NC(C)=O)C(=O)N[C@H](C(=O)N[C@@H](Cc1c[nH]c2ccccc12)C(=O)O)[C@@H](C)CC` [Example 60, Ac--D--Phe--Phe--Asp--Ile--Ile--Trp] (Ac-[dF]FDIIW-OH), the IC50 on ETB worked out at 300 nM.

The record behind these values is US5773414A, “Endothelin antagonists” (Warner-Lambert Company, priority 1997, dated 1998).
